In PubChem BioAssay (NCI):
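Step 1: Grow cells in 96-well plates. Step 2: Expose to compound for 48 hours at 5 concentrations. Step 3: Interpolate endpoints linearly; if unreached, use highest concentration. The concentration for full growth arrest is given as TGI.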

Key:
Assay in all cases: NCI-60 cell line screen, 48 h
[1] = tested on: 786-0 renal
[2] = tested on: A498 renal
[3] = tested on: A549 NSCLC
[4] = tested on: ACHN renal
[5] = tested on: BT-549 breast
[6] = tested on: CAKI-1 renal
[7] = tested on: CCRF-CEM leukemia
[8] = tested on: COLO 205 colon
[9] = tested on: DU-145 prostate
[10] = tested on: EKVX NSCLC
[11] = tested on: HCC-2998 colon
[12] = tested on: HCT-116 colon
[13] = tested on: HCT-15 colon
[14] = tested on: HL-60(TB) leukemia
[15] = tested on: HOP-62 NSCLC
[16] = tested on: HOP-92 NSCLC
[17] = tested on: HS 578T breast
[18] = tested on: HT29 colon
[19] = tested on: IGROV1 ovarian
[20] = tested on: K-562 leukemia
[21] = tested on: KM12 colon
[22] = tested on: LOX IMVI melanoma
[23] = tested on: M14 melanoma
[24] = tested on: MALME-3M melanoma
[25] = tested on: MCF7 breast
[26] = tested on: MDA-MB-231 breast
[27] = tested on: MDA-MB-435
[28] = tested on: MDA-N
[29] = tested on: MOLT-4 leukemia
[30] = tested on: NCI-H226 lung
[31] = tested on: NCI-H23 lung
[32] = tested on: NCI-H460 lung
[33] = tested on: NCI-H522 lung
[34] = tested on: NCI/ADR-RES ovarian
[35] = tested on: OVCAR-3 ovarian
[36] = tested on: OVCAR-5 ovarian
[37] = tested on: OVCAR-8 ovarian
[38] = tested on: PC-3 prostate
[39] = tested on: RPMI-8226 leukemia
[40] = tested on: RXF 393 renal
[41] = tested on: SF-268 CNS
[42] = tested on: SF-295 CNS
[43] = tested on: SF-539 CNS
[44] = tested on: SK-MEL-2 melanoma
[45] = tested on: SK-MEL-28 melanoma
[46] = tested on: SK-MEL-5 melanoma
[47] = tested on: SN12C renal
[48] = tested on: SNB-19 CNS
[49] = tested on: SNB-75 CNS
[50] = tested on: SR leukemia
[51] = tested on: SW-620 colon
[52] = tested on: TK-10 renal
[53] = tested on: U251 CNS
[54] = tested on: UACC-257 melanoma
[55] = tested on: UO-31 renal
[56] = tested on: OVCAR-4 ovarian
[57] = tested on: SK-OV-3 ovarian
[58] = tested on: T-47D breast
[59] = tested on: UACC-62 melanoma

In the case of Cc1ccc(NC(=O)CC(=O)N2N=C(c3ccccc3)C(N=Nc3ccc(S(=O)(=O)CCOS(=O)(=O)O)cc3)C2=O)cc1 (stereo unspecified), the TGI [1] is reported as over 100 µM, the TGI [2] is reported as over 100 µM and the TGI [3] is reported as over 100 µM. It also gave a TGI [4] of over 100 µM, a TGI [5] of over 100 µM and a TGI [6] of over 100 µM. For the same molecule, the TGI [7] was over 100 µM, the TGI [8] was over 100 µM and the TGI [9] was over 100 µM. It also gave a TGI [10] of over 100 µM, a TGI [11] of over 100 µM and a TGI [12] of over 100 µM. It also gave a TGI [13] of over 100 µM, a TGI [14] of over 100 µM and a TGI [15] of over 100 µM. For the same molecule, the TGI [16] was over 100 µM, the TGI [17] was over 100 µM and the TGI [18] was over 100 µM. For the same molecule, the TGI [19] was over 100 µM, the TGI [20] was over 100 µM and the TGI [21] was over 100 µM. The TGI [22] was over 100 µM, the TGI [23] was over 100 µM and the TGI [24] was over 100 µM. It also gave a TGI [25] of over 100 µM, a TGI [26] of over 100 µM and a TGI [27] of over 100 µM. The TGI [28] was over 100 µM, the TGI [29] was over 100 µM and the TGI [30] was over 100 µM. The TGI [31] was over 100 µM, the TGI [32] was over 100 µM and the TGI [33] was over 100 µM. For the same molecule, the TGI [34] was over 100 µM, the TGI [35] was over 100 µM and the TGI [36] was over 100 µM. For the same molecule, the TGI [37] was over 100 µM, the TGI [38] was over 100 µM and the TGI [39] was over 100 µM. It also gave a TGI [40] of over 100 µM, a TGI [41] of over 100 µM and a TGI [42] of over 100 µM. The TGI [43] was over 100 µM, the TGI [44] was over 100 µM and the TGI [45] was over 100 µM. For the same molecule, the TGI [46] was over 100 µM, the TGI [47] was over 100 µM and the TGI [48] was over 100 µM. For the same molecule, the TGI [49] was over 100 µM, the TGI [50] was over 100 µM and the TGI [51] was over 100 µM. For the same molecule, the TGI [52] was over 100 µM, the TGI [53] was over 100 µM and the TGI [54] was over 100 µM. The TGI [55] was over 100 µM.
Work on c1cn[nH]c1 yielded a TGI [1] of over 10 µM, a TGI [2] of over 10 µM and a TGI [3] of over 10 µM. It also gave a TGI [4] of over 10 µM, a TGI [7] of over 10 µM and a TGI [8] of over 10 µM. The TGI [10] was over 10 µM, the TGI [11] was over 10 µM and the TGI [12] was over 10 µM. It also gave a TGI [13] of over 10 µM, a TGI [14] of over 10 µM and a TGI [15] of over 10 µM. The TGI [16] was over 10 µM, the TGI [17] was over 10 µM and the TGI [18] was over 10 µM. For the same molecule, the TGI [19] was over 10 µM, the TGI [20] was over 10 µM and the TGI [21] was over 10 µM. For the same molecule, the TGI [22] was over 10 µM, the TGI [24] was over 10 µM and the TGI [25] was over 10 µM. The TGI [27] was over 10 µM, the TGI [28] was over 10 µM and the TGI [29] was over 10 µM. The TGI [30] was over 10 µM, the TGI [31] was over 10 µM and the TGI [32] was over 10 µM. For the same molecule, the TGI [34] was over 10 µM, the TGI [35] was over 10 µM and the TGI [56] was over 10 µM. The TGI [37] was over 10 µM, the TGI [38] was over 10 µM and the TGI [39] was over 10 µM. The TGI [40] was over 10 µM, the TGI [41] was over 10 µM and the TGI [42] was over 10 µM. It also gave a TGI [43] of over 10 µM, a TGI [44] of over 10 µM and a TGI [45] of over 10 µM. For the same molecule, the TGI [46] was over 10 µM, the TGI [57] was over 10 µM and the TGI [47] was over 10 µM. It also gave a TGI [48] of over 10 µM, a TGI [49] of over 10 µM and a TGI [50] of over 10 µM. The TGI [51] was over 10 µM, the TGI [58] was over 10 µM and the TGI [52] was over 10 µM. The TGI [53] was over 10 µM, the TGI [59] was over 10 µM and the TGI [55] was over 10 µM.
CCCC1C(C#N)(C#N)C(C#N)=C(N)C1(C)C(C)=O (stereo unspecified) showed a TGI [1] of over 100 µM, a TGI [2] of over 100 µM and a TGI [3] of over 100 µM. It also gave a TGI [4] of over 100 µM, a TGI [6] of 21.6 µM and a TGI [7] of over 100 µM. For the same molecule, the TGI [8] was over 100 µM, the TGI [9] was over 100 µM and the TGI [10] was over 100 µM. For the same molecule, the TGI [11] was over 100 µM, the TGI [12] was over 100 µM and the TGI [13] was over 100 µM. The TGI [14] was over 100 µM, the TGI [16] was over 100 µM and the TGI [17] was over 100 µM. It also gave a TGI [18] of over 100 µM, a TGI [19] of over 100 µM and a TGI [20] of over 100 µM. It also gave a TGI [21] of over 100 µM, a TGI [22] of over 100 µM and a TGI [23] of over 100 µM. For the same molecule, the TGI [24] was over 100 µM, the TGI [25] was over 100 µM and the TGI [26] was over 100 µM. The TGI [27] was over 100 µM, the TGI [28] was over 100 µM and the TGI [29] was over 100 µM. The TGI [30] was over 100 µM, the TGI [31] was over 100 µM and the TGI [33] was over 100 µM. For the same molecule, the TGI [34] was over 100 µM, the TGI [36] was over 100 µM and the TGI [37] was over 100 µM. It also gave a TGI [38] of over 100 µM, a TGI [39] of over 100 µM and a TGI [40] of over 100 µM. It also gave a TGI [41] of over 100 µM, a TGI [42] of over 100 µM and a TGI [43] of over 100 µM. It also gave a TGI [44] of over 100 µM, a TGI [46] of over 100 µM and a TGI [57] of over 100 µM. It also gave a TGI [47] of over 100 µM, a TGI [48] of over 100 µM and a TGI [49] of 96.9 µM. It also gave a TGI [51] of over 100 µM, a TGI [58] of over 100 µM and a TGI [52] of over 100 µM. It also gave a TGI [53] of over 100 µM, a TGI [54] of over 100 µM and a TGI [59] of over 100 µM. The TGI [55] was over 100 µM.
CC1CN=C(N(C)C(=O)Nc2ccc(Cl)c(Cl)c2)S1 (stereo unspecified) was tested, and the TGI [1] was over 100 µM, the TGI [2] was over 100 µM and the TGI [3] was over 100 µM. For the same molecule, the TGI [4] was over 100 µM, the TGI [6] was 61.8 µM and the TGI [7] was over 100 µM. The TGI [8] was over 100 µM, the TGI [9] was over 100 µM and the TGI [10] was over 100 µM. It also gave a TGI [11] of over 100 µM, a TGI [12] of over 100 µM and a TGI [13] of 91.5 µM. For the same molecule, the TGI [14] was 57.1 µM, the TGI [15] was over 100 µM and the TGI [16] was 22.9 µM. It also gave a TGI [17] of over 100 µM, a TGI [18] of over 100 µM and a TGI [19] of over 100 µM. The TGI [20] was over 100 µM, the TGI [21] was over 100 µM and the TGI [22] was 91.4 µM. The TGI [23] was 38 µM, the TGI [24] was over 100 µM and the TGI [25] was 59.7 µM. It also gave a TGI [26] of over 100 µM, a TGI [28] of over 100 µM and a TGI [29] of over 100 µM. For the same molecule, the TGI [31] was over 100 µM, the TGI [32] was over 100 µM and the TGI [34] was 73.2 µM. It also gave a TGI [35] of over 100 µM, a TGI [56] of over 100 µM and a TGI [36] of 89.9 µM. The TGI [37] was over 100 µM, the TGI [38] was over 100 µM and the TGI [39] was over 100 µM. It also gave a TGI [41] of over 100 µM, a TGI [42] of over 100 µM and a TGI [43] of 52.6 µM. For the same molecule, the TGI [44] was 44.2 µM, the TGI [45] was 37.9 µM and the TGI [46] was 29.9 µM. It also gave a TGI [57] of over 100 µM, a TGI [47] of over 100 µM and a TGI [48] of over 100 µM. The TGI [49] was over 100 µM, the TGI [50] was over 100 µM and the TGI [51] was over 100 µM. For the same molecule, the TGI [58] was over 100 µM, the TGI [52] was 92.5 µM and the TGI [53] was over 100 µM. For the same molecule, the TGI [54] was over 100 µM and the TGI [55] was over 100 µM.
